# How the values were obtained:
# [1] = molecular target: T1, B-Raf kinase (Homo sapiens, UniProt P15056); assay: Biochemical assay for B-Raf.1 (coupled pyruvate kinase/lactate dehydrogenase); settings: read-out: BRAF.1 IC50
# T1 construct: GST (N); purchased Sigma
# How it was run: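 NADH oxidation followed at 340 nm in a pyruvate kinase/lactate dehydrogenase-coupled assay with 0.13 nM B-Raf, 30.1 nM MEK substrate, 1 mM ATP, pH 7.5 Tris buffer, 1% DMSO. Monitored 6 h at 30 °C; rate taken from 4–5 h. IC50 from four-parameter sigmoidal fit.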
# [2] = molecular target: T2, C-Raf kinase (Homo sapiens, UniProt P04049, Y340D/Y341D); assay: Biochemical assay for C-Raf.1 (coupled pyruvate kinase/lactate dehydrogenase); settings: read-out: CRAF.1 IC50
# T2 construct: Y340D,; GST (N); purchased Sigma
# How it was run: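 C-Raf (0.43 nM) with MEK 30.1 nM and 1 mM ATP in Tris pH 7.5/MgCl2 buffer, activity coupled via PK/LDH to NADH oxidation (A340), 6 h at 30° C. Rates from 4–5 h window converted to % inhibition versus controls; IC50 by four-parameter fit, 1% DMSO.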
# [3] = system: H2405 cells; assay: H2405 cell proliferation assay (1), resazurin, 96-well; format: cell-based; settings: Homo sapiens, NCI-H2405, inhibition of cell proliferation
# How it was run: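 This is a resazurin viability readout (excitation 540 nm, emission 600 nm) taken 5-6 h after adding 440 μM resazurin solution, giving IC50 values.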
# [4] = system: Miapaca-2 cells; assay: MiaPaca-2 cell proliferation assay (1), resazurin, 96-well; format: cell-based; settings: Homo sapiens, MIA PaCa-2, inhibition of cell proliferation
# How it was run: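 Three thousand cells per well in DMEM with 10% FBS and 2.5% horse serum exposed to serially diluted compound in triplicate for 67-72 h at 37 °C, 5% CO2. Viability by resazurin (additional 5-6 h), fluorescence ex 540/em 600 nm; IC50 calculated.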
# T2 sequence (P04049 307-648 Y340D/Y341D): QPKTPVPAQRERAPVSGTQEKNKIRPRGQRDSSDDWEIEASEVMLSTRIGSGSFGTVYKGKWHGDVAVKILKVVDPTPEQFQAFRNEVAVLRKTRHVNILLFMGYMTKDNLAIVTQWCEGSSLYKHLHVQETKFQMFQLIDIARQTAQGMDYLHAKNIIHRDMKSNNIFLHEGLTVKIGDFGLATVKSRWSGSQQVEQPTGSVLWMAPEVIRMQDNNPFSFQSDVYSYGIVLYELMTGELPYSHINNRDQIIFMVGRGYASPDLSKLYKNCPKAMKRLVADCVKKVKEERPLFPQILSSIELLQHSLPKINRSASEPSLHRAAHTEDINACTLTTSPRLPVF
# T1 sequence (P15056 416-766): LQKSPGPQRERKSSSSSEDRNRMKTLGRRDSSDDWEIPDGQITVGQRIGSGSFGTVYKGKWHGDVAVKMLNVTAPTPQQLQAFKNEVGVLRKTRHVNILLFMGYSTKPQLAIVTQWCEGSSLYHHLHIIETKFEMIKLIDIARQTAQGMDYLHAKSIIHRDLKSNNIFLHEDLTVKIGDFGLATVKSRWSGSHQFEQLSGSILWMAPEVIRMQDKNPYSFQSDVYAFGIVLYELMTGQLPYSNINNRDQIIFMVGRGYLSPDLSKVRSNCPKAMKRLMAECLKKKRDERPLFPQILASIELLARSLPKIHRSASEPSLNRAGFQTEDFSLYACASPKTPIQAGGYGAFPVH
SMILES,IC50 [1] [nM],IC50 [2] [nM],IC50 [3] [nM],IC50 [4] [nM]
Cc1cc(F)c(NC(=O)NCCC(C)(C)C#N)cc1-c1cc(N2CCOCC2)nc(N2CCOCC2)c1 [Example 22],100 to 500,≤ 100,1000 to 10000,1000 to 10000
Cc1cc(F)c(NC(=O)NCCC2(C(F)(F)F)CC2)cc1-c1cc(N2CCOCC2)nc(N2CCOCC2)c1 [Example 23],≤ 100,≤ 100,100 to 500,1000 to 10000
Cc1cc(F)c(NC(=O)NCCC2(C(F)(F)F)CC2)cc1-c1cc(OCCO)nc(C2CCOCC2)c1 [Example 24],≤ 100,≤ 100,100 to 500,1000 to 10000
CC(=O)Nc1cc(-c2cc(-c3cc(NC(=O)NCCC4(C)CC4)c(F)cc3C)cc(OCCO)n2)ccn1 [Example 33],≤ 100,≤ 100,≤ 100,100 to 500
Cc1cc(F)c(NC(=O)NCCC2(C)CC2)cc1-c1cc(OCC(C)(C)O)nc(-c2ccncc2)c1 [Example 34],≤ 100,≤ 100,100 to 500,1000 to 10000
Cc1ccc(NC(=O)Nc2cn(C)nc2C(F)(F)F)cc1-c1cc(OCCO)nc(N2CCOCC2)c1 [Example 42],> 1000,> 1000,1000 to 10000,1000 to 10000
Cc1ccc(NC(=O)Nc2cnc(C(F)(F)F)s2)cc1-c1cc(OCCO)nc(N2CCOCC2)c1 [Example 43],100 to 500,≤ 100,100 to 500,100 to 500
CC(=O)Nc1cc(-c2cc(-c3cc(NC(=O)N[C@H]4C[C@](C)(F)C4)ccc3C)cc(OCCO)n2)ccn1 [Example 49],≤ 100,≤ 100,100 to 500,1000 to 10000
Cc1cc(F)c(NC(=O)NCCC2(C)CC2)cc1-c1cccc(-c2cc(NC(=O)C3CC3)ncn2)c1 [Example 65],≤ 100,≤ 100,–,1000 to 10000
Cc1cc(F)c(NC(=O)NCCC(C)(C)C#N)cc1-c1cccc(-c2ccnc(NC(=O)C3CC3)c2)c1 [Example 66],≤ 100,≤ 100,1000 to 10000,1000 to 10000
Cc1cc(F)c(NC(=O)NCCC(C)(C)C#N)cc1-c1cccc(-c2cc(NC(=O)C3CC3)ncn2)c1 [Example 67],≤ 100,≤ 100,100 to 500,1000 to 10000
Cc1ccc(NC(=O)Nc2ccnc(C(C)(C)C#N)c2)cc1-c1ccnc(-c2ccnc(C(=O)NC3CC3)c2)c1 [Example 68],≤ 100,≤ 100,–,1000 to 10000
CNC(=O)c1cc(-c2cc(-c3cc(NC(=O)Nc4ccnc(C(C)(C)C#N)c4)ccc3C)ccn2)ccn1 [Example 69],≤ 100,≤ 100,1000 to 10000,1000 to 10000
COC(C)(C)CCNC(=O)Nc1cc(-c2cccc(-c3ccnc(NC(C)=O)c3)c2)c(C)cc1F [Example 71],≤ 100,≤ 100,–,1000 to 10000
CNC(=O)c1cc(-c2cccc(-c3cc(NC(=O)NCCC(C)(C)OC)c(F)cc3C)c2)ccn1 [Example 72],100 to 500,≤ 100,–,1000 to 10000
Cc1ccc(NC(=O)N2CCC(C(F)(F)F)C2)cc1-c1cccc(-c2cc(NC(=O)C3CC3)ncn2)c1 (stereo not shown) [Example 73],≤ 100,≤ 100,100 to 500,1000 to 10000
Cc1ncc(NC(=O)NCCC(C)(C)F)cc1-c1ccnc(-c2ccnc(NC(=O)C3CC3)c2)c1 [Example 75],≤ 100,≤ 100,1000 to 10000,1000 to 10000

SMILES,IC50 [1] [nM],IC50 [2] [nM],IC50 [3] [nM],IC50 [4] [nM]
Cc1cc(F)c(NC(=O)NCCC2(C)CC2)cc1-c1cc(OCCO)nc(-c2ccnc(NC(=O)C3CC3)c2)c1 [Example 76],≤ 100,≤ 100,≤ 100,1000 to 10000
COC(=O)Nc1cc(-c2cc(-c3cc(NC(=O)NCCC4(C)CC4)c(F)cc3C)cc(OCCO)n2)ccn1 [Example 77],≤ 100,≤ 100,100 to 500,1000 to 10000
Cc1cc(F)c(NC(=O)NCCC2(C)CC2)cc1-c1ccnc(-c2ccnc3c2CC(=O)N3)c1 [Example 79],≤ 100,≤ 100,500 to 1000,1000 to 10000
Cc1cc(F)c(NC(=O)NC2CC(C)(C)C2)cc1-c1cc(OCCO)nc(-c2ccnc(NC(=O)C3CC3)c2)c1 [Example 80],≤ 100,≤ 100,≤ 100,1000 to 10000
Cc1ncc(NC(=O)NCCC2(C)CC2)cc1-c1nccc(-c2ccnc(NC(=O)C3CC3)c2)n1 [Example 81],≤ 100,≤ 100,100 to 500,1000 to 10000
COC(C)(C)CCNC(=O)Nc1cnc(C)c(-c2nccc(-c3ccnc(NC(=O)C4CC4)c3)n2)c1 [Example 82],100 to 500,≤ 100,1000 to 10000,1000 to 10000
COC(C)(C)CCNC(=O)Nc1cc(-c2nccc(-c3ccnc(NC(=O)C4CC4)c3)n2)c(C)cc1F [Example 83],≤ 100,≤ 100,100 to 500,1000 to 10000
COC1(CCNC(=O)Nc2cnc(C)c(-c3cccc(-c4cc(NC(=O)C5CC5)ncn4)c3)c2)CC1 [Example 84],≤ 100,≤ 100,1000 to 10000,1000 to 10000
Cc1ccc(NC(=O)N2CC[C@H](C(F)(F)F)C2)cc1-c1cncc(-c2cc(NC(=O)C3CC3)ncn2)c1 [Example 195],≤ 100,≤ 100,100 to 500,1000 to 10000
Cc1ccc(NC(=O)N2CC[C@H](C(F)(F)F)C2)cc1-c1cccc(-c2cc(NC(=O)C3CC3)ncn2)c1 [Example 200],≤ 100,≤ 100,100 to 500,1000 to 10000
Cc1ccc(NC(=O)N2CC[C@@H](C(F)(F)F)C2)cc1-c1cccc(-c2cc(NC(=O)C3CC3)ncn2)c1 [Example 201],≤ 100,≤ 100,100 to 500,1000 to 10000
CNC(=O)c1cc(-c2cc(-c3cc(NC(=O)NC4CCCCC4)c(F)cc3C)cc(OCCO)n2)ccn1 [Example 205],≤ 100,≤ 100,–,1000 to 10000
CNC(=O)c1cc(-c2cncc(-c3cc(NC(=O)N4CC[C@H](C(F)(F)F)C4)c(F)cc3C)c2)ccn1 [Example 214],500 to 1000,100 to 500,100 to 500,1000 to 10000
Cc1cc(F)c(NC(=O)N2CC[C@H](C(F)(F)F)C2)cc1-c1cncc(-c2cc(NC(=O)C3CC3)ncn2)c1 [Example 216],≤ 100,≤ 100,100 to 500,1000 to 10000
Cc1ccc(NC(=O)N2CC[C@@H](C(C)C)C2)cc1-c1cncc(-c2cc(NC(=O)C3CC3)ncn2)c1 [Example 217],≤ 100,≤ 100,100 to 500,500 to 1000
Cc1ccc(NC(=O)N2CC[C@H](C(C)C)C2)cc1-c1cncc(-c2cc(NC(=O)C3CC3)ncn2)c1 [Example 221],≤ 100,≤ 100,≤ 100,500 to 1000

# Source: patent publication US20230357179A1, “RAF KINASE INHIBITORS AND METHODS OF USE THEREOF” (Deciphera Pharmaceuticals, LLC, priority 2021, published 2023)
